Measured values from patent EP4813463A2, “TYK2 INHIBITORS AND COMPOSITIONS AND METHODS THEREOF” (Lynk Pharmaceuticals Co. Ltd., priority 2023, dated 2024).
Converted amounts (≈) assume the structure as drawn. Like-named read-outs stand apart in the source and are kept apart here.

Key:
TYK2-JH2 domain = molecular target: T1, TYK2-JH2 domain (Homo sapiens, UniProt P29597); test: Binding activity test for JH2 domain of TYK2 (Tb-antibody/tracer FRET); settings: for IC50: JH2 domain enzyme, 60 min at 25°C, then 4°C overnight, read-out: TYK2 JH2 Binding IC50; for JAK1/TYK2 selectivity: ratio of JAK1 JH2 to TYK2 JH2 binding IC50
T1 construct: JAK1-JH2 domain or TYK2-JH2 domain enzyme in assay buffer
T1 sequence (P29597 589-875 limits assumed): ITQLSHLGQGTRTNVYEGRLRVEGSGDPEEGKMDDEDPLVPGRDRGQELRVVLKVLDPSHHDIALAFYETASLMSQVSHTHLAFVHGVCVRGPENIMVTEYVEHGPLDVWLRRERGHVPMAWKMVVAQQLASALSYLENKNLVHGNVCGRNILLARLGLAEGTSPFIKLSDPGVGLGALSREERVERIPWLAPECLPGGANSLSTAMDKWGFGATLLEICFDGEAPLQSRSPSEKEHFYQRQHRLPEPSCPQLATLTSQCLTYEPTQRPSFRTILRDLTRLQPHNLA
Method in brief: (§1)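 IC50 values (nM) come from TR-FRET readings taken after a 25°C incubation followed by overnight at 4°C. Each well held JH2 domain protein, Tb-antibody, tracer and test compound titrated in 11 threefold steps, with DMSO high and low controls.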

JAK1-JH2 domain = molecular target: T2, JAK1-JH2 domain (Homo sapiens, UniProt P23458); test: Binding activity test for JH2 domain of JAK1 (Tb-antibody/tracer FRET); settings: JH2 domain enzyme; 60 min at 25°C, then 4°C overnight; read-out: JAK1 JH2 Binding IC50
T2 construct: JAK1-JH2 domain or TYK2-JH2 domain enzyme in assay buffer
T2 sequence (P23458 583-855 limits assumed): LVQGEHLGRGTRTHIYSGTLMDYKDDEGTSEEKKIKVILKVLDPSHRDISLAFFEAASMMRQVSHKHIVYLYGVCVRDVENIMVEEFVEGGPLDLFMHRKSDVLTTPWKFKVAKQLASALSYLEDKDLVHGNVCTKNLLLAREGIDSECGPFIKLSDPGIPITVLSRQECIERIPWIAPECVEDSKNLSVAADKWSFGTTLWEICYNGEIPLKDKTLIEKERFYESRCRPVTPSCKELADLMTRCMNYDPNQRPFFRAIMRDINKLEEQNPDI
Method in brief: as §1

[1] = test system: Ba/F3-FL-TYK2-P760L cells; test: Anti-proliferative assay in engineered Ba/F3 cells (Cell-Titer Glo, 72 h); assay type: cell-based; settings: 72 h compound treatment, concentration that causes 50% growth inhibition, read-out: Baf3-FL-T2P760L
Method in brief: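 IC50 from luminescent ATP viability after 72 h compound exposure (37 °C, 5% CO2), % inhibition normalised to DMSO-treated cells minus medium blank. IL-3-free Ba/F3-FL-TYK2-P760L (Tel-JAK fusion) cells in 10% FBS RPMI-1640 received 9 three-fold doses, top 20 µM, 0.1% DMSO.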

pSTAT1 = test: Phosphorylation inhibition of STAT in human whole blood (IFN-alpha stimulated, flow cytometry); assay type: cell-based; settings: T-cell, 20 min, IFN-alpha stimulation 20 mins, CD3 T cells, read-out: pSTAT1 inhibition in hWB (IC50)
Protocol: The inhibitory potential of test articles in human whole blood assay was evaluated by the method of flow cytometry.
IFN-alpha will activate JAK1 and TYK2 kinase in T cells by binding to IFN receptors, and then lead to phosphorylation of STAT1 and STAT2. The phosphorylated STAT1 enter nuclear and promote transcription and expression of IFN-gamma. To evaluate the efficacy of TYK2i in T cells, freshly collected human whole blood will be stimulated with certain unit of human IFN-alpha (Universal Type I IFN(1MU), R&D, 11200-2) for 20 mins in incubator. After stimulation, fix cells with Phosflow™ Fix Buffer I (BD, 557870), and then collect fixed cells by centrifugation (500 g, 8min). Wash cells once with pre-cooled PBS, and then permeabilize cells with cold Perm Buffer III buffer (BD, 558050) for 45 mins on ice. Collect cells by centrifugation (600 g, 8min) and washed twice with cold PBS. Stain cells with anti-human CD3(FITC Mouse Anti-Human CD3, BD, 555332) and anti-pSTAT1_Y701(Alexa Fluor 647 Mouse Anti-Stat1 (pY701), BD, 612597) antibodies. Detect pSTAT1 by flow cytometry (CytoFlex S) and analyze data with FlowJo and GraphPad Prism 8 software. IC50 values of test articles were determined using 4- parameter logistic equation.

Kinetic solubility = assay type: physicochemical; settings: phosphate buffer, pH 7.4, aqueous buffer, kinetic from dmso stock, 100 mM pH 7.4 phosphate buffer, 1% DMSO, room temperature, read-out: Kinetics Solubility_PBS7.4
Protocol: Aliquots of 8 µL of reference and test compound stock solutions (10 mM/5 mM) are added into 792 µL of 100 mM pH 7.4 phosphate buffer. The final DMSO concentration is 1%. Sample tubes are shaken for 2 hours at 1000 rpm at room temperature. Samples are centrifuged at 12000 rpm for 10 min to precipitate un-dissolved particles. And transfer the supernatants to a new tube or plate. Add 5 µL of samples (no diluted, 10 times diluted, and 100 times diluted) and standard curve samples to 95 µL of ACN containing IS for LC-MS/MS analysis. Kinetic Solubilities Values of Exemplary Compounds

[2] = Microsomal metabolic stability assay; assay type: in vitro ADME; settings: human, liver microsomes, pH 7.4, 0.5 mg/mL microsomal protein, 1 µM test article, 2 mM NADPH; for microsomal CLint at 1 µM: read-out: Human LM Clint; for half-life at 1 µM: read-out: Human LM T1/2
Protocol: Microsomes were pre-incubated with test compound or control compounds for 5 min at 37°C in 100 mM potassium phosphate buffer, pH 7.4, 1.0 mM EDTA. The reaction was initiated by addition of 15 µL of the NADPH regenerating system to 30 µL of each incubation mixture per time point. The final incubation condition was composed of 0.5 mg/mL microsomal protein, 1 µM test article/positive control, 2 mM NADPH. The 0-minute samples were prepared by addition of a 30 µL aliquot of each incubation mixture to 135 µL quench reagent to precipitate proteins. And then a 15 µL aliquot of the NADPH regenerating system was added. At 5, 15, 30 and 45 minutes, the reaction will be stopped by the addition of cold acetonitrile solution containing internal standard. The samples taken at all time points were centrifuged at 5000×g for 15 minutes. 50 µL of supernatant are taken into 96-well assay plates pre-added with 50 µL ultrapure water, and then analyzed by LC/MS/MS.
Concentrations of test articles, control compounds in the samples were determined by using LC/MS/MS method. Plotting of the chromatograms and peak area integrations are carried out by Analyst (AB Sciex).
In the determination of the in vitro elimination constant (ke) of the control compounds, the analyte/internal standard peak area ratios will be converted to percentage remaining (%Remaining) with the following equation: %Remaining = (Peak area ratio of analyte to IS at each time point)/(Peak area ratio of analyte to IS at t = 0) × 100% [formula]
The CLint of microsomes was calculated using the formula: CLint (mic)=0.693/T1/2 /mg microsome protein per mL. The slope was measured by the natural logarithm of the percentage of the residual compound and time, T1/2 was calculated according to the following formula. T = (0.693)/(−slope) [formula]

SMILES	IC50 (TYK2-JH2 domain)	JAK1/TYK2 selectivity (TYK2-JH2 domain)	IC50 (JAK1-JH2 domain)	IC50 [1]	IC50 (pSTAT1)	solubility kinetic at 2 h (Kinetic solubility)	IC50 ([1]; Mus musculus, BaF3, 72 h)	microsomal CLint at 1 µM [2]	half-life at 1 µM [2]
[2H]C([2H])([2H])NC(=O)c1cnc(NC(=O)C2CC2)cc1Nc1cnn2ccc(C(C)C(F)(F)F)c(OC)c12 (single isomer, unassigned) [Example 9B, (S*)-6-(cyclopropanecarboxamido)-4-((4-methoxy-5-(1,1,1-trifluoropropan-2-yl)pyrazolo[1,5-a]pyridin-3-yl)amino)-N-(methyl-d3)nicotinamide]	0.08 nM	63.0	5.04 nM	54.2 nM	290 nM	45.4 µM (≈ 21.7 µg/mL)			
[2H]C([2H])([2H])NC(=O)c1cnc(NC(=O)C2CC23CC3)cc1Nc1cnn2ccc([C@H](O)C(F)(F)F)c(OC)c12 (single isomer, unassigned) [Example 32A, 4-((4-Methoxy-5-((S)-2,2,2-trifluoro-1-hydroxyethyl)pyrazolo[1,5-a]pyridin-3-yl)amino)-N-(methyl-d3)-6-((S*)-spiro[2.2]pentane-1-carboxamido)nicotinamide]	0.099 nM	187.6	18.6 nM	33 nM	99.4 nM	25.5 µM (≈ 12.9 µg/mL)			
[2H]C([2H])([2H])NC(=O)c1cnc(NC(=O)C2CC2)cc1Nc1cn(C)c2ccc(CC)c(OC)c12 [Example 2, 6-(Cyclopropanecarboxamido)-4-((5-ethyl-4-methoxy-1-methyl-1H-indol-3-yl)amino)-N-(methyl-d3)nicotinamide]	0.333 nM	15.7	5.24 nM		141 nM	15.3 µM (≈ 6.5 µg/mL)	17 nM		
[2H]C([2H])([2H])NC(=O)c1cnc(NC(=O)C2CC2)cc1Nc1cnn2ccc(Cl)c(OC)c12 [Example 3, 4-((5-Chloro-4-methoxypyrazolo[1,5-a]pyridin-3-yl)amino)-6-(cyclopropanecarboxamido)-N-(methyl-d3)nicotinamide]	0.223 nM	59.9	13.4 nM		177 nM	15.1 µM (≈ 6.31 µg/mL)	43.6 nM		
[2H]C([2H])([2H])NC(=O)c1cnc(NC(=O)C2CC2)cc1Nc1cnn2ccc(C)c(OC)c12 [Example 5, 6-(Cyclopropanecarboxamido)-4-((4-methoxy-5-methylpyrazolo[1,5-a]pyridin-3-yl)amino)-N-(methyl-d3)nicotinamide]	0.137 nM	48.3	6.62 nM		139 nM	57.4 µM (≈ 22.8 µg/mL)	32 nM		
[2H]C([2H])([2H])NC(=O)c1cnc(NC(=O)C2CC2)cc1Nc1cnn2ccc(C(O)C(F)(F)F)c(OC)c12 (centres unmarked) [Example 7, 6-(Cyclopropanecarboxamido)-4-((4-methoxy-5-(2,2,2-trifluoro-1-hydroxyethyl)pyrazolo[1,5-a]pyridin-3-yl)amino)-N-(methyl-d3)nicotinamide]	0.147 nM	74.9	11 nM		67.4 nM	42.9 µM (≈ 20.7 µg/mL)	9.32 nM		
[2H]C([2H])([2H])NC(=O)c1cnc(NC(=O)C2CC2)cc1Nc1cnn2ccc(CC(F)(F)F)c(OC)c12 [Example 8, 6-(Cyclopropanecarboxamido)-4-((4-methoxy-5-(2,2,2-trifluoroethyl)pyrazolo[1,5-a]pyridin-3-yl)amino)-N-(methyl-d3)nicotinamide]	0.106 nM	32.0	3.39 nM		75.5 nM	18.6 µM (≈ 8.63 µg/mL)	31.3 nM		
[2H]C([2H])([2H])NC(=O)c1cnc(NC(=O)[C@@H]2C[C@@H]2F)cc1Nc1cnn2ccc(C#N)c(OC)c12 [Example 13, 4-((5-Cyano-4-methoxypyrazolo[1,5-a]pyridin-3-yl)amino)-6-((1S,2S)-2-fluorocyclopropane-1-carboxamido)-N-(methyl-d3)nicotinamide]	0.172 nM	122.0	21 nM			11.2 µM (≈ 4.77 µg/mL)	131 nM	22 µL/min/mg	1.05 h
[2H]C([2H])([2H])NC(=O)c1cnc(NC(=O)C2CC2)cc1Nc1cnn2ccc(COC([2H])([2H])[2H])c(OC)c12 [Example 29, 6-(Cyclopropanecarboxamido)-4-((4-methoxy-5-((methoxy-d3)methyl)pyrazolo[1,5-a]pyridin-3-yl)amino)-N-(methyl-d3)nicotinamide]	0.219 nM	76.4	16.7 nM			67.2 µM (≈ 28.9 µg/mL)	80.9 nM	27.9 µL/min/mg	0.827 h
[2H]C([2H])([2H])NC(=O)c1cnc(NC(=O)[C@@H]2C[C@@H]2F)cc1Nc1cnn2cnc(C(C)C(F)(F)F)c(OC)c12 (stereo partly drawn) [Example 38, 6-((1S,2S)-2-fluorocyclopropane-1-carboxamido)-4-((4-methoxy-5-(1,1,1-trifluoropropan-2-yl)pyrazolo[1,5-c]pyrimidin-3-yl)amino)-N-(methyl-d3)nicotinamide]	0.761 nM	188.7	144 nM			37.2 µM (≈ 18.5 µg/mL)	1340 nM	7.34 µL/min/mg	3.15 h
[2H]C([2H])([2H])NC(=O)c1cnc(NC(=O)C2CC2)cc1Nc1nn(C)c2ccc([C@H](OC)C(F)(F)F)c(OC)c12 [Example 46A, (S)-6-(cyclopropanecarboxamido)-4-((4-methoxy-1-methyl-5-(2,2,2-trifluoro-1-methoxyethyl)-1H-indazol-3-yl)amino)-N-(methyl-d3)nicotinamide]	0.074 nM	40.64	3.01 nM		33 nM	8.16 µM (≈ 4.16 µg/mL)	0.31 nM		
[2H]C([2H])([2H])NC(=O)c1cnc(NC(=O)C2CC2)cc1Nc1nn(C)c2ccc([C@@H](O)C(F)(F)F)c(OC)c12 [Example 49B, (R)-6-(cyclopropanecarboxamido)-4-((4-methoxy-1-methyl-5-(2,2,2-trifluoro-1-hydroxyethyl)-1H-indazol-3-yl)amino)-N-(methyl-d3)nicotinamide]	0.211 nM	28.76	6.07 nM			37.5 µM (≈ 18.6 µg/mL)	18 nM		
